# Like-named read-outs stand apart in the source and are kept apart here.
# How the values were obtained:
# c-Met kinase = molecular target: T1, c-Met kinase (Homo sapiens, UniProt P08581); assay: Inhibitory activity of compound to c-Met kinases (Z'-LYTE kinase assay kit); format: biochemical; conditions: Tyr 6 substrate peptide, read-out: Strength of activity (inhibition on c-Met kinase, IC50)
# T1 construct: purchased Invitrogen PV3143
# Protocol: The inhibitory activity of the compound to c-Met kinases in vitro is determined through the following method.
# The method described below can be used to determine the inhibiting capacity of the compound of the present invention on the c-Met kinase activity, and the inhibiting capacity is represented by IC50. The half inhibitory concentration IC50 (a concentration of the compound for inhibiting the enzyme activity to 50%) of the compound is obtained by: mixing and reacting a certain amount of kinase with a specific substrate and different concentrations of test compound, and then labeling the substrate with an anti-phosphotyrosine antibody and a […], and finally quantitatively determining the c-Met kinase activity through a time-resolved fluorescence method.
# The specific experiment is implemented by using a Z′-LYTE kinase assay kit (Invitrogen, item PV4122). First, the test compound is diluted into 8 different concentrations from 100 μM at an interval of 1:5 with an ATP solution (Invitrogen, item PV3227); 5 μL 2×c-Met (Invitrogen, item PV3143) and 2×Z′-LYTE Tyr 6 substrate peptide are respectively taken up, and added to a 384-well microtiter plate, 5 μL diluted different concentrations of test compound are added in sequence, and the lid is closed. The microtiter plate is incubated for 60 min at room temperature (20° C. to 25° C.); and then 5 μL […] is added, and the lid is closed. The microtiter plate is incubated for 60 min at room temperature (20° C. to 25° C.); and then 5 μL termination reagent is added to the reaction well, to terminate the reaction. Finally, the fluorescence intensity (OD400) of each well is determined in a fluorescence analyzer (excitation wavelength: 400 nm). The inhibition rate is calculated, and the half inhibitory concentration (IC50) of the compound is calculated according to the inhibition rates of different concentrations.
# For a negative control group, except that test compound (replaced by 5 μL ATP solution) is not added, all the other reagents are added. In addition, an enzyme-free control group (that is, blank group) is set.
# [1] = test system: Human gastric cancer cell SNU-5; assay: Inhibition of in vitro proliferation of human gastric cancer cell SNU-5 (SRB); format: cell-based; conditions: SNU-5 cells, 72-hr agent treatment, read-out: Strength of activity (inhibition on SNU-5, IC50)
# Protocol: Human gastric cancer cells SNU-5 are cultured in an IMDM medium containing 20% fetal bovine serum, and the culture conditions are 37° C. and 5% CO2. Tumor cells are inoculated in a 96-well plate, and after 24-hr sidewall growth, 9 different concentrations of (1 to 30000 nM) an agent are added, after 72-hr agent treatment, the medium is discarded, the cells are fixed by cold trichloroacetic acid, and then dyed with a sulforhodamine B (SRB) solution. Unbound SRB is washed off, and SRB bound with protein was dissolved with Tris, the OD is determined at a wavelength of 510 nm by a microplate reader, and the cell growth inhibition rate is calculated according to the following equation: Inhibition rate=(OD of control well-OD of administered well)/OD of control well×100%
# According to the inhibition rates of different concentrations, the half inhibitory concentration IC50 is calculated by using a Logit method.
# [2] = test system: human malignant glioma U87-MG xenografts; assay: Efficacy on human malignant glioma U87-MG xenografts in nude mice; format: in vivo, BALB/cA-nude nude mice; conditions: 100 mg/kg orally once per day for 16 days
# Protocol: The human malignant glioma U87-MG is purchased from ATCC (American Type Culture Collection), America.
# BALB/cA-nude nude mice (♀, 6-7 weeks old) are purchased from Shanghai SLAC Laboratory Animal Co. Ltd. Breeding environment: SPF grade.
# In vitro-cultured malignant glioma U87-MG cells are inoculated subcutaneously in nude mice, and after the tumor grows to a size of 100 to 250 mm^3, the animals are randomly divided into groups (d0). The dose of the test agent is 100 mg/kg, and the agent is orally administered once per day for continuous 16 days. The volume of the tumor is measured two to three times per week, the mice are weighed, and the data is recorded. The tumor volume (V) is calculated according to the equation: V=1/2×a×b^2, where a and b respectively represent length and width.
# The antineoplastic efficacy is evaluated according to tumor inhibition rate, and the tumor inhibition rate is calculated according to the equation below: Tumor inhibition rate=1−(T−T0)/(C−C0), • where T and C are respectively tumor volumes of the test agent group mice and the blank group mice at the end of the experiment; and T0 and C0 are tumor volumes at the start of the experiment.
# T1 sequence (P08581 25-1390): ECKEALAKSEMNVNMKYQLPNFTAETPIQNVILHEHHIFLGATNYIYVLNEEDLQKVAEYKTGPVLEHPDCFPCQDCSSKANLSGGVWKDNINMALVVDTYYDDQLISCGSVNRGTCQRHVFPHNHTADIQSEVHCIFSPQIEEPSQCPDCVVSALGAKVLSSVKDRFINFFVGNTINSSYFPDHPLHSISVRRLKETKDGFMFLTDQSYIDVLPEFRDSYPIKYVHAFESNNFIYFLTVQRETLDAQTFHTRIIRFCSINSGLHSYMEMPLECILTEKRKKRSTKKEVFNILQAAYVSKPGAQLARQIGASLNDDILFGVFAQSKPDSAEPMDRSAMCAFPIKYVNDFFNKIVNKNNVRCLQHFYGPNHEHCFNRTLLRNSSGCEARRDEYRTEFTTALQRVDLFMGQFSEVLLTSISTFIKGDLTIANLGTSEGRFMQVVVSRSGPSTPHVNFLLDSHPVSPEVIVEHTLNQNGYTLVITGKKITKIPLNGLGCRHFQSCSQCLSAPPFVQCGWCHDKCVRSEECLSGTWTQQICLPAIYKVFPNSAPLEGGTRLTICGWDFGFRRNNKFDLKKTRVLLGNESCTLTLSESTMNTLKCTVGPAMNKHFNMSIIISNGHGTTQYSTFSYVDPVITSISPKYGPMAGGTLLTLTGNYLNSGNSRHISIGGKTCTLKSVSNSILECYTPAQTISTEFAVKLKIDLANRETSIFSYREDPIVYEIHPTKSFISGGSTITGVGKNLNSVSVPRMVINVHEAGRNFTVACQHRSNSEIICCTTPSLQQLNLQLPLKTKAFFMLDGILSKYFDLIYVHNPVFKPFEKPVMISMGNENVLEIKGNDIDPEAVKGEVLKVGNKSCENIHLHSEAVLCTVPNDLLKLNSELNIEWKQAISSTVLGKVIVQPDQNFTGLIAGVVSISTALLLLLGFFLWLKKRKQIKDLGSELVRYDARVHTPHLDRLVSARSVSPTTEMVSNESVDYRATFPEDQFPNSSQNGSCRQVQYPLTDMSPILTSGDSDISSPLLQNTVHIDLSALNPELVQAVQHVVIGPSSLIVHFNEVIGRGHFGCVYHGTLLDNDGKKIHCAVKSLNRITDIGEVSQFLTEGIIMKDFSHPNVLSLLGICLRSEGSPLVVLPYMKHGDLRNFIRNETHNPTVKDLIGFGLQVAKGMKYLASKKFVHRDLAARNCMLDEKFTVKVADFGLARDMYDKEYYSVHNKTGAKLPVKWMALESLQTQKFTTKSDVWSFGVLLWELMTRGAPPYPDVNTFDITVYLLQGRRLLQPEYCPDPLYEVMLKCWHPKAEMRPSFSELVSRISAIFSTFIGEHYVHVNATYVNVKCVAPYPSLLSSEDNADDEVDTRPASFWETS
IC50 (c-Met kinase) [nM],IC50 ([1]; Homo sapiens) [nM],IC50 [1] [nM],SMILES,Tumor Inhibition Rate (%) [2] [%]
10 to 100,< 100,,Nc1cc(Oc2ccc(NC(=O)c3cc4ncsc4n(-c4ccc(F)cc4)c3=O)cc2F)ccn1 [Embodiment 1],62
< 10,100 to 500,,Nc1nccc(Oc2ccc(NC(=O)c3cc4ncsc4n(-c4ccc(F)cc4)c3=O)cc2F)c1Cl [Embodiment 2],16
10 to 100,100 to 500,,COc1ccc2c(Oc3ccc(NC(=O)c4cc5ncsc5n(-c5ccc(F)cc5)c4=O)cc3F)ccnc2c1 [Embodiment 3],91
< 10,,100 to 500,O=C(Nc1ccc(Oc2ccnc3[nH]ccc23)c(F)c1)c1cc2ncsc2n(-c2ccc(F)cc2)c1=O [Embodiment 4],26
< 10,,< 100,COc1cc2c(Oc3ccc(NC(=O)c4cc5ncsc5n(-c5ccc(F)cc5)c4=O)cc3F)ccnc2cc1OCCCN1CCOCC1 [Embodiment 5],74

# From patent publication US9562060B2, “Heterocyclic pyridone compound, and intermediate, preparation method and use thereof” (SHANGHAI HUILUN LIFE SCIENCE & TECHNOLOGY CO., LTD, priority 2011, dated 2017)
